These are literature values, as cited in patent US20250129429A1, “GENE FUSIONS IN SARCOMA” (Foundation Medicine, Inc., priority 2021, published 2025).

Data set [1] has as its system NTRK fusion-positive AML cell lines.
Data set [2] deals with various solid tumors with NTRK fusions. Conditions: monotherapy; adult and pediatric patients, with and without CNS metastases.
The target in data set [3] is NGF dimer (Homo sapiens, UniProt P01138). The note with it: binds the NGF dimer.
Data set [4] has as its system NTRK1 fusion-positive tumors. Conditions: patients with NTRK1 fusion-positive tumors.
Data set [5] has as its system various solid tumors harboring NTRK fusions.
The target in data set [6] is TrkA (Homo sapiens, UniProt P04629).
The target of data set [7] is TrkB (Homo sapiens, UniProt Q16620).

Structures are written as SMILES.

Chain of TrkA (P04629 33-796): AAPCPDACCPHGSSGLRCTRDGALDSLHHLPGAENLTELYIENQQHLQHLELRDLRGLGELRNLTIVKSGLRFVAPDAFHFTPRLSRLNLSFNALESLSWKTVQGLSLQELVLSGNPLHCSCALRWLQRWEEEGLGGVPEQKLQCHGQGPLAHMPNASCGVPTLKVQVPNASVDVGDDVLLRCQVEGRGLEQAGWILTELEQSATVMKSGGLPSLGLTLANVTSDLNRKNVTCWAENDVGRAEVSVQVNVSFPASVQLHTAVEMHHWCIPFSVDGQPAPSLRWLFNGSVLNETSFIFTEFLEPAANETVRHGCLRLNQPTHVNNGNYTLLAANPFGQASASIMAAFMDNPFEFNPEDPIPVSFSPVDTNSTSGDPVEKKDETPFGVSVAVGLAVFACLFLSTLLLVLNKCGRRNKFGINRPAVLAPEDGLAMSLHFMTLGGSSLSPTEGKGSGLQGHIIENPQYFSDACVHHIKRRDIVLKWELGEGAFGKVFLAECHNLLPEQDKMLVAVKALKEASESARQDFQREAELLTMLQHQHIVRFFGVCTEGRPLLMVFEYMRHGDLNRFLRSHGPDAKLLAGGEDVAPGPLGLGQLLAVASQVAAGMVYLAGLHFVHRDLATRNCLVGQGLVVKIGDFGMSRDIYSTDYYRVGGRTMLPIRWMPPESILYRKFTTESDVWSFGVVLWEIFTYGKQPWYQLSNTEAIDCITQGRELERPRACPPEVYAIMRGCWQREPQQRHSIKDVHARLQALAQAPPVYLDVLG
Chain of NGF dimer (P01138 122-241): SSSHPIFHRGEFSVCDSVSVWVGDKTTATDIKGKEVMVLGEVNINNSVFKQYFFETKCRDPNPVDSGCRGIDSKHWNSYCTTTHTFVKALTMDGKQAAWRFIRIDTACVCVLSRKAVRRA
Chain of TrkB (Q16620 32-822, species assumed): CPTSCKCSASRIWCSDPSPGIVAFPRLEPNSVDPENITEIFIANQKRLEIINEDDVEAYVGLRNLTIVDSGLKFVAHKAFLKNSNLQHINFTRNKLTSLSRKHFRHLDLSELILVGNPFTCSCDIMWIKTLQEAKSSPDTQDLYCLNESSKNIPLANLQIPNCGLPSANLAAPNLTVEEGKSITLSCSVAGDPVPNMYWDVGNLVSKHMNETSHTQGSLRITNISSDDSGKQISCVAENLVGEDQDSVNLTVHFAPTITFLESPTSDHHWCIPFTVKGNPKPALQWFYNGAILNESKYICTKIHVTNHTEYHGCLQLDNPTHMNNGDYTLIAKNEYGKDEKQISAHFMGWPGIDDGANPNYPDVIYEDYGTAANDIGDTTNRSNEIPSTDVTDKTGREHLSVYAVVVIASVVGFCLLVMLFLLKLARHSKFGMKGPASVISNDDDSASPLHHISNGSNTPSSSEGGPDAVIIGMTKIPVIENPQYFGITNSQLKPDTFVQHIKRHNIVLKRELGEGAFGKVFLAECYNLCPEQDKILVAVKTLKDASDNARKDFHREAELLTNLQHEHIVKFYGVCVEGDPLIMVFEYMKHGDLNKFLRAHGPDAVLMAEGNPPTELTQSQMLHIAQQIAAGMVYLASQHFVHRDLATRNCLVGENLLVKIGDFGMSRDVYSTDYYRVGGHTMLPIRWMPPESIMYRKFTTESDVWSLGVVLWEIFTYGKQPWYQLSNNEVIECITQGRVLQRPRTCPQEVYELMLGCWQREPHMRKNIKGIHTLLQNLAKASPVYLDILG

With `CN1CCN(c2ccc(C(=O)Nc3n[nH]c4ccc(Cc5cc(F)cc(F)c5)cc34)c(NC3CCOCC3)c2)CC1` [entrectinib, N-[5-(3,5-Difluorobenzyl)-1H-indazol-3-yl]-4-(4-methyl-1-piperazinyl)-2-(tetrahydro-2H-pyran-4-ylamino)benzamide], the preclinical sensitivity entry in data set [1] is reported as “preclinical sensitivity has been observed”. For the same compound, the clinical benefit entry in data set [2] is “Clinical benefit with entrectinib monotherapy has been achieved”.
Broadly, the Kd is the constant that tells how readily two partners part at equilibrium. As for `Cc1cc2nc3c(=O)[nH]c(=O)nc-3n(C)c2cc1C=O` [Ro 08-2750], in data set [3], the Kd was about 1000 nM.
Consider `C[C@@H](Oc1cc(-c2cnn(C3CCNCC3)c2)cnc1N)c1c(Cl)ccc(F)c1Cl` [crizotinib], for which the clinical responses result in data set [4] is “Durable clinical responses”.
Regarding `O=C(Nc1cnn2ccc(N3CCC[C@@H]3c3cc(F)ccc3F)nc12)N1CC[C@H](O)C1` [larotrectinib], the CR in data set [5] (adult and pediatric patients with solid tumors harboring NTRK fusions) is recorded as 17 % of patients. For the same compound, the ORR in data set [5] (adult and pediatric patients with various solid tumors harboring NTRK fusions (88/109)) is 81%. The responses ongoing in data set [5] (at 12 months of treatment) is given as 75-81 % of patients. In addition, in data set [5] (individuals with NTRK fusion-positive gliomas or brain metastases), the intracranial efficacy entry is reported as “has been demonstrated”.
In general, IC50 refers to the concentration at which inhibition is half-maximal. With `c1ccc2c(c1)[nH]c1c3cccnc3ccc21` [pyridocarbazole], the IC50 in data set [6] was 6 nM.
On to `CC(C)Oc1cc(Nc2nc(N[C@@H](C)c3ccc(F)cn3)ncc2Cl)n[nH]1` [AZ-23, 5-chloro-N-[(1S)-1-(5-fluoropyridin-2-yl)ethyl]-N′-(5-propan-2-yloxy-1H-pyrazol-3-yl)pyrimidine-2,4-diamine], for which the IC50 in data set [7] was 8 nM.
`NC(=O)Nc1snc(S[C@@H]2CCCCc3ccccc32)c1C(N)=O` [isothiazole 5n]: the IC50 in data set [6] was under 1 nM.
